# Results: patent US20150050410A1, “COMPOUNDS, COMPOSITIONS, AND METHODS FOR MODULATING SWEET TASTE” (Chromocell Corporation, priority 2013, published 2015)
# Columns and labels:
# [1] = tested on: perception of sweet taste, in an aqueous solution, in humans; test: Inherent sweetness assessment, difference from control "sip and spit" method; assay type: in vivo; conditions: no sweetener
# Method: The taste test panelists used in the Examples 1-3 were selected using a sensory acuity screening program. Candidate taste panelists were recruited, with prescreening and personal interviews, and were assessed and for their ability to detect, recognize and differentiate basic taste attributes or mixtures thereof as part of a standardized acuity test. This included basic tastes of sweet, sour, salty, bitter and umami, as well as having the capacity to focus on specific aspects of sensory character such as ranking the various tastes perceived and identifying the basic tastes presented at threshold levels.
# The aqueous sucrose solutions were prepared by adding, sucrose (by weight), to water to achieve the desired concentration.
# Compounds were first prepared as a 500-fold concentrated stock solution in 100% ethanol. These concentrated stocks were then added to water to result in a final ethanol concentration of 0.2%. The control (including positive control) samples were also normalized to 0.2% ethanol. This level of ethanol was not seen to contribute any perceived sweetness.
# The intrinsic effect of test compounds on the perception of sweet taste, in an aqueous solution, in humans was evaluated using a difference from control “sip and spit” method employing a verbal category scale.
# In this method, panelists (n=12) evaluate one pair of samples at a time—one sample contains water plus compound (i.e. test) while the other contains water without compound (i.e. control). Panelists were instructed to first taste the un-blinded control followed by the test sample and asked to rate the size of sweetness difference between the test and control sample, using a 6 point verbal category scale:
# Verbal Category Scale • No difference • Slight difference • Slight/moderate difference • Moderate difference • Moderate/large difference • Very large difference […]
# [2] = tested on: perception of the sweet taste in humans; test: Trained descriptive analysis (DA) panel, sweet attribute; assay type: in vivo; conditions: for compound effects beyond the additive effect of inherent sweetness: 4% fructose and 8% sucrose; for DA Panel Average Sweetness Intensity Score (on 15 cm scale): inherent sweetness, 35 ppm compound plus solubilizing agent, 1 cm = 1% sucrose
# Method: The effect of the test compounds on the perception of the sweet taste in an aqueous environment, in the absence or presence of carbohydrate sweeteners, was evaluated using a descriptive analysis methodology with a group of trained panelists, as follows.
# Candidate panelists were recruited, with prescreening and personal interviews, and were assessed for their ability to detect, recognize and differentiate basic taste attributes or mixtures thereof as part of a standardized acuity test. These candidate panelists were also assessed for their innate ability to identify flavors, and to rank on intensity scales. Other senses such as smell and vision were also included as part of the assessment. Candidates also were screened for their ability to use the language to describe and articulate ideas.
# Selected candidates proceeded to training as a group in three phases: (1) Lexicon development, (2) Concept alignment, and (3) Scaling descriptors. During lexicon development, panelists evaluated products appropriate for use in the study to generate and align on terms describing the flavor, taste, aromatic, trigeminal, and temporal attributes. During concept alignment, the panel evaluated the products mentioned above to clarify and confirm the attributes that were generated during lexicon development using reference standards that appropriately define each attribute; these are either physical references (e.g. sucrose solutions) or verbal descriptions (e.g. overall flavor). Product terms and concepts were validated during this portion of the study.
# In the last phase, scaling descriptors, the panel participated in a series of exercises focused on ordering and ranking samples according to relative attribute intensity, measuring attribute intensity using a defined length of line scale. Whenever possible, different levels or concentration of references were used as anchors to facilitate use of the scale. Panelists were provided with blinded references at this stage to evaluate their understanding and perception of the scale.
# The panel used in this example was trained to reference sweet attributes in an absolute manner, such that a particular concentration of sweetener is always measured by the panelists at the same point using a 15 cm line scale where each cm represents a 1% increase in sucrose to cover the range of 0% to 15% sucrose. For the rest of the attributes, the panel was trained using a hybrid approach between descriptive analysis methods (e.g. quantitative descriptive analysis, the sensory spectrum, etc.) well-known to those skilled in the art.
# The trained panel was then used for a descriptive analysis assessment for Compounds 1, 2 and 3 in aqueous solutions at pH 3 and pH 7. Each of the three compounds was tested at 35 ppm in sucrose and fructose sweeteners. In addition, Compounds 1, 2 and 3 were also examined in water at pH 3 and pH 7 to assess for any inherent sweetness.
# The aqueous sweetener solutions were prepared by adding, fructose or sucrose (by weight), to water to achieve the desired concentration. Aqueous sucrose solutions at pH 3 were buffered using a final concentration of 0.096% Citric Acid plus 0.036% Sodium Citrate while aqueous fructose solutions at pH 3 were buffered using a final concentration of 0.06% Citric Acid and 0.0225% Sodium Citrate.
# Compounds were first prepared as a […] concentrated stock solution in 100% ethanol. These concentrated stocks were then added to the aqueous sweetener solutions to result in a final ethanol concentration of 0.2%. In addition to compounds, a solubilizing agent at a final concentration of 0.02% was added to the aqueous sweetener solutions. Control samples were also balanced with 0.2% ethanol and in certain cases 0.02% solubilizing agent.
# Both control (aqueous sweetener solutions without compound) and variant (aqueous sweetener solutions with compound) samples were blinded and randomized (by sweetener and pH blocks). […]
# tasters = conditions: DuBois, et al., J. Med. Chem., 1981; cited from earlier work
compound,measurement,setting,value
"COc1ccc(C2CC(=O)c3c(O)cccc3O2)cc1O (racemic) [Compound 1, 5-hydroxy-2-(3-hydroxy-4-methoxyphenyl)chroman-4-one]",Correlated Inherent Sweetness Assessment,[1]; compound 10 ppm in water,0% sucrose
same,Correlated Inherent Sweetness Assessment,[1]; compound 15 ppm in water,0%-0.5%
same,Correlated Inherent Sweetness Assessment,[1]; compound 25 ppm in water,0%-0.5%
same,compound effects beyond the additive effect of inherent sweetness,"[2]; pH 3, 35 ppm, Table 7 vs Table 5",super-additive effects
same,compound effects beyond the additive effect of inherent sweetness,"[2]; pH 7, 35 ppm, Table 6 vs Table 4",super-additive effects
same,perceived sweetness compared to control sweetener solutions (FIG. 2),"[2]; aqueous fructose and sucrose solutions at pH 3, 35 ppm, ** p<0.01",significant increase in perceived sweetness
same,perceived sweetness compared to control sweetener solutions (FIG. 1),"[2]; aqueous fructose and sucrose solutions at pH 7, 35 ppm, ** p<0.01",significant increase in perceived sweetness
same,DA Panel Average Sweetness Intensity Score (on 15 cm scale),[2]; citric acid-citrate solution pH 3,do not show further significant increase in perceived inherent sweetness
same,DA Panel Average Sweetness Intensity Score (on 15 cm scale),[2]; water pH 7,further increase in perceived sweetness
same,reported sweet flavor,tasters,sweet flavor
